Source: PubChem BioAssay AID1549 (Sanford-Burnham Center for Chemical Genomics, 2009)
Active and inactive are the calls of the source. How the calls were made is not given here.

These molecules were tested against Influenza A virus M2 proton channel (A/TW/4845/1999 H1N1) (assay: NMR binding screen, influenza A virus M2 proton channel, Kd (AID 1549)). Conditions: M2 protein.
In the case of O=C(Nc1ccc2c(c1)OCO2)c1ccc(=O)[nH]n1, the Kd is reported as > 4 mM (inactive). For O=C1C=C(Nc2ccccc2O)c2ccccc2C1=O, the Kd was > 4 mM (inactive). C=C(C)[C@H]1COc2cc3oc(=O)ccc3cc2O1 was tested, and the Kd was > 4 mM (inactive). In the case of CC(=O)O[C@@H]1CC2C(C)(C)C=CC(=O)[C@]2(C)C2CC[C@@]3(C)[C@H](c4ccoc4)OC(=O)C4OC43[C@@]21C (some centres not stated), the Kd is reported as > 4 mM (inactive). With Cc1onc(-c2ccccc2)c1CO the Kd was > 4 mM (inactive). In the case of CCN1CCC(NC2CCC(O)CC2)CC1 (configuration not stated), the Kd is reported as > 4 mM (inactive). With CSc1nnnn1-c1cccc(O)c1 the Kd was > 4 mM (inactive). In the case of NC(=O)Cn1nc(-c2ccc(F)cc2)ccc1=O, the Kd is reported as > 4 mM (inactive). For C(=N\n1cnnc1)/c1cccs1, the Kd was > 4 mM (inactive). For Nc1ccc(C(=O)NCC2CCCO2)cc1 (configuration not stated), the Kd was > 4 mM (inactive). Cc1nnsc1C(=O)Nc1ccc(C(N)=O)cc1 was tested, and the Kd was > 4 mM (inactive). In the case of CC(=O)c1c(C)nc(-c2ccc(F)cc2)n1O, the Kd is reported as > 4 mM (inactive). In the case of CN1CCN(C2CCN(Cc3ccccc3)CC2)CC1, the Kd is reported as > 4 mM (inactive). In the case of O=C1NC(=O)C2C3C=CC(O3)C12 (configuration not stated), the Kd is reported as > 4 mM (inactive). O=[N+]([O-])c1ccc(/C=N/c2ncn[nH]2)cc1 was tested, and the Kd was > 4 mM (inactive). With O=c1[nH]cc(COCc2ccccc2)c(=O)[nH]1 the Kd was > 4 mM (inactive). COC(=O)c1cc2cc(N)ccc2s1 was tested, and the Kd was > 4 mM (inactive). For CCOC(=O)c1c(C)nc2sccn12, the Kd was > 4 mM (inactive). With Cc1cc(NC(=O)Cc2cccs2)no1 the Kd was > 4 mM (inactive). With CC(=O)Nc1ccc(S(=O)(=O)N2CCN=C2C)cc1 the Kd was > 4 mM (inactive). For C=C(C)[C@@H]1[C@H]2OC(=O)[C@@H]1[C@]1(O)C[C@H]3O[C@]34C(=O)O[C@H]2[C@]14C, the Kd was > 4 mM (inactive). O=C(N1CCOCC1)N1CCN(c2ccccn2)CC1 was tested, and the Kd was > 4 mM (inactive). For CCOC(=O)c1nc2ccccc2c(=O)n1N, the Kd was > 4 mM (inactive). In the case of COC(=O)C[C@H]1C2(C)CC34OC5(C)O[C@@]6([C@H](OC)C(OC(=O)C(C)C)[C@]7(C)C(/C(=C(/OC)C(C)C)C(=O)O[C@H]7c7ccoc7)[C@@]6(O5)[C@H](OC)[C@@]3(OC)C2OC(C)=O)[C@]14C (some centres not stated), the Kd is reported as > 4 mM (inactive). In the case of Cc1c(N=Cc2ccco2)c(=O)n(-c2ccccc2)n1C, the Kd is reported as > 4 mM (inactive). In the case of NC1=NC(=O)/C(=C\c2ccccc2)S1, the Kd is reported as > 4 mM (inactive). COc1ccc(N/C(N)=N\c2nc(C)cc(C)n2)cc1 was tested, and the Kd was > 4 mM (inactive). CSc1nc(NC(C)(C)C)nc(N2CCOCC2)n1 was tested, and the Kd was > 4 mM (inactive). For CCOC(=O)c1cc(C)[nH]n1, the Kd was > 4 mM (inactive). In the case of O=C1CSC(=Nc2ccc(Cl)cc2)N1, the Kd is reported as > 4 mM (inactive). In the case of Cc1nccc2c1[nH]c1ccccc12, the Kd is reported as > 4 mM (inactive). CCOC(=O)c1cc2ccccc2oc1=O was tested, and the Kd was > 4 mM (inactive). For Cc1ccc2nc(SCC(=O)O)nc(C)c2c1, the Kd was > 4 mM (inactive). For COc1cccc(-c2nc(-c3ccccn3)no2)c1OC, the Kd was > 4 mM (inactive). In the case of CCc1cc2c(SCC(=O)O)ncnc2s1, the Kd is reported as > 4 mM (inactive). With CC(C)C1COc2cc3oc(=O)ccc3cc2O1 (configuration not stated) the Kd was > 4 mM (inactive). In the case of Clc1ccc2c(N3CCNCC3)ccnc2c1, the Kd is reported as > 4 mM (inactive). In the case of CC(C)CC(=O)Nc1c[nH]c(=O)[nH]c1=O, the Kd is reported as > 4 mM (inactive). In the case of CSc1nc(NC(C)C)nc(N2CCOCC2)n1, the Kd is reported as > 4 mM (inactive). In the case of NC(=O)CC[C@H](N)C(=O)O, the Kd is reported as > 4 mM (inactive). C/C=C(/C)C(=O)O[C@H]1CC[C@@]2(C)[C@@H]3CC[C@H]4[C@]5(O)C[C@H](O)[C@@]6(O)[C@@H](CN7C[C@@H](C)CC[C@H]7[C@@]6(C)O)[C@]5(O)C[C@@]42OC13O was tested, and the Kd was > 4 mM (inactive). O=c1oc2c(O)c(O)cc3c(=O)oc4c(O)c(O)cc1c4c23 was tested, and the Kd was > 4 mM (inactive). Nc1ccc(S(=O)(=O)Nc2nccs2)cc1 was tested, and the Kd was > 4 mM (inactive). In the case of NS(=O)(=O)c1ccccc1Cl, the Kd is reported as > 4 mM (inactive). In the case of O=C(NC1=NCCS1)c1ccc(Cl)s1, the Kd is reported as > 4 mM (inactive). COc1ccc2c(c1)OCC(Cc1ccc(OC)c(OC)c1)C2=O (configuration not stated) was tested, and the Kd was > 4 mM (inactive). With CC12CC[C@H](CC1=O)C2(C)C the Kd was > 4 mM (inactive). With NCc1ccc(-n2cccc2)cc1 the Kd was > 4 mM (inactive). In the case of O=C(NCCO)c1cc2ccccc2c(=O)s1, the Kd is reported as > 4 mM (inactive). In the case of c1ccc(Cc2nnc3sc(-c4ccncc4)nn23)cc1, the Kd is reported as > 4 mM (inactive). In the case of C=C1C(=O)OC2CC1C(OC(C)=O)C/C(C)=C/CC/C(C)=C/CC[C@]2(C)O (some centres not stated), the Kd is reported as > 4 mM (inactive). In the case of C/C=C/C=N/NC(=O)c1ccc(=O)n(C)c1, the Kd is reported as > 4 mM (inactive). CC1=C(C(N)=O)C(c2ccco2)C(C(N)=O)=C(C)N1 was tested, and the Kd was > 4 mM (inactive). For CC(=O)c1sc2nc(N)nn2c1C, the Kd was > 4 mM (inactive). With O=C(O)CSCc1c(F)cccc1Cl the Kd was > 4 mM (inactive). With COC(=O)Cc1cc(=O)n(-c2ccccc2)[nH]1 the Kd was > 4 mM (inactive). For C=CCNC(=O)c1ccc(Cl)cc1Cl, the Kd was > 4 mM (inactive). CC(CC(=O)O)n1cccn1 (configuration not stated) was tested, and the Kd was > 4 mM (inactive). For CC(=O)CC1CCCCN1 (configuration not stated), the Kd was > 4 mM (inactive). In the case of C=CC1=C(C)/C(=C/c2[nH]c(Cc3[nH]c(/C=C4\NC(=O)C(C)=C4C=C)c(C)c3CCC(=O)O)c(CCC(=O)O)c2C)NC1=O, the Kd is reported as > 4 mM (inactive). For CC[C@@]1(O)C[C@H](O[C@H]2C[C@H](N(C)C)[C@H](O)[C@H](C)O2)c2c(cc3c(c2O)C(=O)c2c(O)cccc2C3=O)[C@H]1C(=O)OC, the Kd was > 4 mM (inactive). With CC1(C)CC[C@]2(C)CC[C@]3(C)C(=CCC4[C@@]5(C)CC[C@H](O)C(C)(C)C5CC[C@]43C)C2C1 (some centres not stated) the Kd was > 4 mM (inactive). In the case of CSc1ccccc1NC(=O)c1ccco1, the Kd is reported as > 4 mM (inactive). With COc1cc(C(C)=O)cc(OC)c1O the Kd was > 4 mM (inactive). In the case of Cc1cc(C)n(/N=C\c2cccs2)c(=O)c1C(N)=O, the Kd is reported as > 4 mM (inactive). In the case of NC(=O)C1CCN(C(=O)c2ccccc2F)CC1, the Kd is reported as > 4 mM (inactive). For CNS(=O)(=O)c1cccs1, the Kd was > 4 mM (inactive). CS(=O)(=O)NN=C1CCCCC1 was tested, and the Kd was > 4 mM (inactive). In the case of CC(O)(C(=O)O)c1ccccc1 (configuration not stated), the Kd is reported as > 4 mM (inactive). With CN1CCN(C(=O)c2ccco2)CC1 the Kd was > 4 mM (inactive). In the case of Cc1cccc(CSc2nncc(=O)[nH]2)c1, the Kd is reported as > 4 mM (inactive). For O=C(NCc1ccccn1)c1ccc(Br)s1, the Kd was > 4 mM (inactive). With Cc1cc(=O)[nH]c(N)n1 the Kd was > 4 mM (inactive). For Cc1c(C(=O)Nn2cnnc2)oc2ccccc12, the Kd was > 4 mM (inactive). In the case of CC(=O)NN1C(=O)/C(=C\c2ccc(O)cc2)SC1=S, the Kd is reported as > 4 mM (inactive). In the case of CC1(C)CC[C@]2(C(=O)O)CC[C@]3(C)C(=CCC4[C@@]5(C)CC[C@@H](O)C(C)(C)C5CC[C@]43C)C2C1 (some centres not stated), the Kd is reported as > 4 mM (inactive). For COc1cc(OC)c2c(=O)c(-c3ccc4c(c3)OCO4)coc2c1, the Kd was > 4 mM (inactive). Cc1n[nH]c(C)c1CN was tested, and the Kd was > 4 mM (inactive). With CSc1ccn(CCC(=O)O)c(=O)n1 the Kd was > 4 mM (inactive). In the case of COC(=O)c1ccc2nc[nH]c2c1, the Kd is reported as > 4 mM (inactive). In the case of CNc1nnc(CSc2nc(C)cc(C)n2)s1, the Kd is reported as > 4 mM (inactive). With Nc1ccccc1OC(F)(F)F the Kd was > 4 mM (inactive).
